These are literature values, as cited in US20080187585A1, “Prolonged-Release Compositions Comprising Torasemide and a Matrix-Forming Polymer” (FERRER INTERNACIONAL S.A., priority 2004, published 2008).

Experiment in data set [1]: not given
This is another data set of the same source.

Structures are written as SMILES.

As for `Cc1cccc(Nc2ccncc2S(=O)(=O)NC(=O)NC(C)C)c1` [torasemide, Torasemide], the bioavailability (after oral administration) is given as 80-90%. Moreover, where the note is “oral administration”, the kinetics result is listed as “linear”. Under “oral administration, man”, the “elimination half-life (t1/2)” value was 3 to 4 h and the “tmax (time to maximum plasma concentration)” value is listed as “approximately 1 hour”. Besides, in data set [1] (after oral administration), the “time of maximal effects on urine and electrolytes excretions” value is recorded as “approximately 2 hours”. For the same molecule, the “dose-response relationship for urinary volume” value in data set [1] (doses from 2.5 to 20 mg) is “linear dose-response relationship”.
